Reference: patent US20100152129A1 (priority 2008, published 2010)
Where two headings read alike, the source gives them in different places.

Key:
[1] = system: Panc1 cells; assay: Drug induced cytotoxicity at various time points, comparison with known CDK inhibitors
[2] = system: Panc-1 cells; assay: Protein expression using high content cell imaging system, and efficacy score; type: cell-based; conditions: for Efficacy score: cumulative over proteins of Table 7; for BCL2 protein expression: test concentration or dose not given here; for CCND1 protein expression: test concentration or dose not given here; for CDC25B protein expression: test concentration or dose not given here; for CDKN2A protein expression: test concentration or dose not given here; for COX15 protein expression: test concentration or dose not given here; for GADD45-α protein expression: test concentration or dose not given here; for GAPDH protein expression: test concentration or dose not given here; for ID1 protein expression: test concentration or dose not given here; for MMP-1 protein expression: test concentration or dose not given here; for P27 protein expression: test concentration or dose not given here; for PTN protein expression: test concentration or dose not given here
[3] = system: Panc1 cells; conditions: human
[4] = 6 hours post treatment, control 1
[5] = 6 hours post treatment, control 3
[6] = 6 hours post treatment, control 6
[7] = 6 hours post treatment, control 7
[8] = 6 hours post treatment, control 8
[9] = 6 hours post treatment, control 74
[10] = 6 hours post treatment, control 80
[11] = 6 hours post treatment, control 147
[12] = 6 hours post treatment, control 501
[13] = 6 hours post treatment, control 627
[14] = 6 hours post treatment, control 635
[15] = 6 hours post treatment, control 819
[16] = 6 hours post treatment, control 829
[17] = 6 hours post treatment, control 830
[18] = 6 hours post treatment, control 1240
[19] = 16 hours post treatment, control 13
[20] = 16 hours post treatment, control 54
[21] = 16 hours post treatment, control 64
[22] = 16 hours post treatment, control 67
[23] = 16 hours post treatment, control 76
[24] = 16 hours post treatment, control 77
[25] = 16 hours post treatment, control 90
[26] = 16 hours post treatment, control 100
[27] = 16 hours post treatment, control 202
[28] = 16 hours post treatment, control 579
[29] = 16 hours post treatment, control 644
[30] = 16 hours post treatment, control 711
[31] = 16 hours post treatment, control 718
[32] = 16 hours post treatment, control 929
[33] = 16 hours post treatment, control 1109
[34] = 16 hours post treatment, control 2583
[35] = 36 hours post treatment, control 19
[36] = 36 hours post treatment, control 86
[37] = 36 hours post treatment, control 96
[38] = 36 hours post treatment, control 98
[39] = 36 hours post treatment, control 100
[40] = 36 hours post treatment, control 265
[41] = 36 hours post treatment, control 715
[42] = 36 hours post treatment, control 722
[43] = 36 hours post treatment, control 1093
[44] = 36 hours post treatment, control 1316
[45] = 36 hours post treatment, control 1410
[46] = 36 hours post treatment, control 1441
[47] = 36 hours post treatment, control 2840

CC[C@H](CO)Nc1nc(NCc2ccccc2)c2ncn(C(C)C)c2n1 [Roscovitine]
% Cytotoxicity in Panc1 cells ([1]; 6 hrs after drug treatment): 12.35%
% Cytotoxicity in Panc1 cells ([1]; 16 hrs after drug treatment): 15.24%
% Cytotoxicity in Panc1 cells ([1]; 36 hrs after drug treatment): 17.35%
PTN protein expression [2, 4]: 2 fluorescence units
GADD45-α protein expression [2, 5]: 2 fluorescence units
ID1 protein expression [2, 5]: 16 fluorescence units
P27 protein expression [2, 6]: 6 fluorescence units
CDC25B protein expression [2, 7]: 4 fluorescence units
CDKN2A protein expression [2, 8]: 10 fluorescence units
CCND1 protein expression [2, 9]: 82 fluorescence units
GAPDH protein expression [2, 10]: 81 fluorescence units
CASP3 protein expression [2, 11]: 217 fluorescence units
MMP-1 protein expression [2, 12]: 417 fluorescence units
COX15 protein expression [2, 13]: 936 fluorescence units
COX2 protein expression [2, 14]: 542 fluorescence units
BAX protein expression [2, 15]: 729 fluorescence units
VEGF protein expression [2, 16]: 417 fluorescence units
BCL2 protein expression [2, 17]: 569 fluorescence units
pRB protein expression [2, 18]: 1578 fluorescence units
Efficacy score ([2]; 6 hours): 1.9
GADD45-α protein expression [2, 19]: 49 fluorescence units
CDC25B protein expression [2, 20]: 38 fluorescence units
CDKN2A protein expression [2, 21]: 47 fluorescence units
P27 protein expression [2, 22]: 42 fluorescence units
PTN protein expression [2, 23]: 37 fluorescence units
ID1 protein expression [2, 24]: 55 fluorescence units
CCND1 protein expression [2, 25]: 84 fluorescence units
GAPDH protein expression [2, 26]: 99 fluorescence units
CASP3 protein expression [2, 27]: 1272 fluorescence units
VEGF protein expression [2, 28]: 475 fluorescence units
BCL2 protein expression [2, 29]: 529 fluorescence units
BAX protein expression [2, 30]: 747 fluorescence units
COX15 protein expression [2, 31]: 954 fluorescence units
MMP-1 protein expression [2, 32]: 475 fluorescence units
COX2 protein expression [2, 33]: 990 fluorescence units
pRB protein expression [2, 34]: 1632 fluorescence units
Efficacy score ([2]; 16 hours): 11.5
GADD45-α protein expression [2, 35]: 44 fluorescence units
COX2 protein expression [2, 36]: 67 fluorescence units
P27 protein expression [2, 37]: 63 fluorescence units
CCND1 protein expression [2, 38]: 98 fluorescence units
CDC25B protein expression [2, 38]: 68 fluorescence units
GAPDH protein expression [2, 38]: 75 fluorescence units
ID1 protein expression [2, 38]: 56 fluorescence units
PTN protein expression [2, 39]: 98 fluorescence units
CASP3 protein expression [2, 40]: 1335 fluorescence units
BAX protein expression [2, 41]: 1785 fluorescence units
COX15 protein expression [2, 42]: 1992 fluorescence units
VEGF protein expression [2, 43]: 1024 fluorescence units
MMP-1 protein expression [2, 44]: 1024 fluorescence units
BCL2 protein expression [2, 45]: 1091 fluorescence units
CDKN2A protein expression [2, 46]: 1322 fluorescence units
pRB protein expression [2, 47]: 1889 fluorescence units
Efficacy score ([2]; 36 hours): 8.1

CN1CC[C@H](c2c(O)cc(O)c3c(=O)cc(-c4ccccc4Cl)oc23)[C@H](O)C1 [Flavopiridol]
PTN protein expression [2, 4]: 1 fluorescence units
GADD45-α protein expression [2, 5]: 1 fluorescence units
ID1 protein expression [2, 5]: 2 fluorescence units
P27 protein expression [2, 6]: 9 fluorescence units
CDC25B protein expression [2, 7]: 1 fluorescence units
CDKN2A protein expression [2, 8]: 67 fluorescence units
CCND1 protein expression [2, 9]: 78 fluorescence units
GAPDH protein expression [2, 10]: 80 fluorescence units
CASP3 protein expression [2, 11]: 111 fluorescence units
MMP-1 protein expression [2, 12]: 501 fluorescence units
COX15 protein expression [2, 13]: 689 fluorescence units
COX2 protein expression [2, 14]: 351 fluorescence units
BAX protein expression [2, 15]: 481 fluorescence units
VEGF protein expression [2, 16]: 501 fluorescence units
BCL2 protein expression [2, 17]: 410 fluorescence units
pRB protein expression [2, 18]: 1523 fluorescence units
Efficacy score ([2]; 6 hours): 1.6
GADD45-α protein expression [2, 19]: 15 fluorescence units
CDC25B protein expression [2, 20]: 10 fluorescence units
CDKN2A protein expression [2, 21]: 14 fluorescence units
P27 protein expression [2, 22]: 22 fluorescence units
PTN protein expression [2, 23]: 17 fluorescence units
ID1 protein expression [2, 24]: 19 fluorescence units
CCND1 protein expression [2, 25]: 52 fluorescence units
GAPDH protein expression [2, 26]: 100 fluorescence units
CASP3 protein expression [2, 27]: 536 fluorescence units
VEGF protein expression [2, 28]: 129 fluorescence units
BCL2 protein expression [2, 29]: 401 fluorescence units
BAX protein expression [2, 30]: 252 fluorescence units
COX15 protein expression [2, 31]: 459 fluorescence units
MMP-1 protein expression [2, 32]: 129 fluorescence units
COX2 protein expression [2, 33]: 466 fluorescence units
pRB protein expression [2, 34]: 1300 fluorescence units
Efficacy score ([2]; 16 hours): 9.4
GADD45-α protein expression [2, 35]: 5 fluorescence units
COX2 protein expression [2, 36]: 2 fluorescence units
P27 protein expression [2, 37]: 2 fluorescence units
CCND1 protein expression [2, 38]: 27 fluorescence units
CDC25B protein expression [2, 38]: 21 fluorescence units
GAPDH protein expression [2, 38]: 2 fluorescence units
ID1 protein expression [2, 38]: 3 fluorescence units
PTN protein expression [2, 39]: 100 fluorescence units
CASP3 protein expression [2, 40]: 599 fluorescence units
BAX protein expression [2, 41]: 1049 fluorescence units
COX15 protein expression [2, 42]: 1256 fluorescence units
VEGF protein expression [2, 43]: 316 fluorescence units
MMP-1 protein expression [2, 44]: 316 fluorescence units
BCL2 protein expression [2, 45]: 367 fluorescence units
CDKN2A protein expression [2, 46]: 798 fluorescence units
pRB protein expression [2, 47]: 1557 fluorescence units
Efficacy score ([2]; 36 hours): 9.3
% Cytotoxicity in Panc1 cells ([3]; 16 h): 21.25%
% Cytotoxicity in Panc1 cells ([3]; 36 h): 29.47%
